We go through 24 molecules from patent US10577363B2, “Substituted piperidine compounds” (EPIZYME, INC., priority 2014, dated 2020).

The target in test [1] is T1, SMYD3 (Homo sapiens (Human), UniProt Q9H7B4). The test can be described thus: SMYD3 cell assay (Trimethyl-MEKK2 In-Cell Western in 293T/17 cells). Particulars: read-out: SMYD3 Cell IC50*. The format is cell-based. The essentials: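 In-Cell Western ratio of trimethyl-Lys260 MEKK2 to anti-flag signal; percent inhibition from DMSO and maximum-inhibition controls, IC50 by non-linear regression, triplicates.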

The target of test [2] is T1, SMYD3. The test can be described thus: SMYD3 biochemical assay (SPA, 3H-SAM methylation of MEKK2 protein substrate). The conditions noted are these: read-out: SMYD3 Biochem IC50*. An outline of the steps: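 Tritium incorporation into GST-MEKK2 is counted by scintillation proximity after citric acid bead capture. Native human SMYD3 is preincubated with test compound for 30 min at room temperature at pH 8.0 (Tris-Cl, TCEP, BSG, Tween 20) before 3H-SAM and substrate are added; cold SAM at 100 uM final stops turnover.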

T1 sequence (Q9H7B4 whole entry): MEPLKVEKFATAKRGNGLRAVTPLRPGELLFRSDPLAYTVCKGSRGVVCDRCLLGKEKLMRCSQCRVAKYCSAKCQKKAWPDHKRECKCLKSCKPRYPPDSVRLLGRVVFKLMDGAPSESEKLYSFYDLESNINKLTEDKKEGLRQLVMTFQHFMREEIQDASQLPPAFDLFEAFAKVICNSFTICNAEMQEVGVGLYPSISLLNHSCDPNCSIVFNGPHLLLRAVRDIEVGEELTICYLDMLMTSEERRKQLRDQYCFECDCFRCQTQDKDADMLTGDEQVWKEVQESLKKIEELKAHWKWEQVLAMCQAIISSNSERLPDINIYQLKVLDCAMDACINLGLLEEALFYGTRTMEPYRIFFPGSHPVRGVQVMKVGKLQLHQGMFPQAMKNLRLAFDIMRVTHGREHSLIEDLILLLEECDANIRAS

Regarding `C[C@H]1CN(S(=O)(=O)[C@H]2CC[C@H](N(C)C)CC2)CC[C@H]1NC(=O)c1cc(C2CC2)on1` [compound 837, 5-cyclopropyl-N-((3S,4R)-1-(((1r,4S)-4-(dimethylamino)cyclohexyl)sulfonyl)-3-methylpiperidin-4-yl)isoxazole-3-carboxamide], the IC50 at SMYD3 [1] is 84.4 nM; on SMYD3 [2], 4.82 nM.
Regarding `CN(CCCC(F)(F)F)C1CCN(S(=O)(=O)N2[C@@H]3CC[C@H]2C[C@@H](NC(=O)c2cc(C4CC4)on2)C3)CC1` [compound 838, 5-cyclopropyl-N-((1R,3r,5S)-8-((4-(methyl(4,4,4-trifluorobutyl)amino)piperidin-1-yl)sulfonyl)-8-azabicyclo[3.2.1]octan-3-yl)isoxazole-3-carboxamide], the IC50 on SMYD3 [1] was found to be 52.4 nM; at SMYD3 [2], 4.9 nM.
In the same order, the values of `C[C@H]1C[C@@H](NC(=O)c2cc(C3CC3)on2)CCN1S(=O)(=O)N1CCC(N(C)Cc2ccccc2)CC1` [compound 839, N-((2S,4S)-1-((4-(benzyl(methyl)amino)piperidin-1-yl)sulfonyl)-2-methylpiperidin-4-yl)-5-cyclopropylisoxazole-3-carboxamide] are 154 nM and 4.97 nM.
In the same order, the values of `O=C(N[C@H]1C[C@H]2CC[C@@H](C1)N2S(=O)(=O)N1CC2CC1CN2)c1cc(C2CC2)on1` [compound 840, N-((1R,3r,5S)-8-((2,5-diazabicyclo[2.2.1]heptan-2-yl)sulfonyl)-8-azabicyclo[3.2.1]octan-3-yl)-5-cyclopropylisoxazole-3-carboxamide] are 56 nM and 5.01 nM.
In the same order, the values of `C[C@H]1C[C@@H](NC(=O)c2cc(C3CC3)on2)CCN1S(=O)(=O)CC[C@@H]1CCNC1` [compound 841, 5-cyclopropyl-N-((2S,4S)-2-methyl-1-((2-((S)-pyrrolidin-3-yl)ethyl)sulfonyl)piperidin-4-yl)isoxazole-3-carboxamide] are 124 nM and 5.05 nM.
Turning to `C[C@H](C1CCNCC1)S(=O)(=O)N1[C@@H]2CC[C@H]1C[C@@H](NC(=O)c1cc(C3CC3)on1)C2` [compound 842, 5-cyclopropyl-N-((1R,3R,5S)-8-(((R)-1-(piperidin-4-yl)ethyl)sulfonyl)-8-azabicyclo[3.2.1]octan-3-yl)isoxazole-3-carboxamide], the IC50 at SMYD3 [1] stood at 29 nM; at SMYD3 [2], 5.1 nM.
In the same order, the values of `CC(C)CNC1CCN(S(=O)(=O)N2CC[C@H](NC(=O)c3cc(C4CC4)on3)C[C@@H]2C)CC1` [compound 843, 5-cyclopropyl-N-((2S,4S)-1-((4-(isobutylamino)piperidin-1-yl)sulfonyl)-2-methylpiperidin-4-yl)isoxazole-3-carboxamide] are 77.7 nM and 5.11 nM.
Take `CN(CCc1ccccc1)C1CCN(S(=O)(=O)N2[C@@H]3CC[C@H]2C[C@@H](NC(=O)c2cc(C4CC4)on2)C3)CC1` [compound 844, 5-cyclopropyl-N-((1R,3r,5S)-8-((4-(methyl(phenethyl)amino)piperidin-1-yl)sulfonyl)-8-azabicyclo[3.2.1]octan-3-yl)isoxazole-3-carboxamide]: the results for the IC50 on SMYD3 [1] and on SMYD3 [2] were 305 nM and 5.28 nM, respectively.
In the same order, the values of `O=C(N[C@H]1C[C@H]2CC[C@@H](C1)N2S(=O)(=O)N1CCC(NCCCO)CC1)c1cc(C2CC2)on1` [compound 845, 5-cyclopropyl-N-((1R,3r,5S)-8-((4-((3-hydroxypropyl)amino)piperidin-1-yl)sulfonyl)-8-azabicyclo[3.2.1]octan-3-yl)isoxazole-3-carboxamide] are 86.3 nM and 5.3 nM.
On the same counts, the results for `CC(C)CCN(C)C1CCN(S(=O)(=O)N2[C@@H]3CC[C@H]2C[C@@H](NC(=O)c2cc(C4CC4)on2)C3)CC1` [compound 846, 5-cyclopropyl-N-((1R,3r,5S)-8-((4-(isopentyl(methyl)amino)piperidin-1-yl)sulfonyl)-8-azabicyclo[3.2.1]octan-3-yl)isoxazole-3-carboxamide] are 80.2 nM and 5.36 nM.
`C[C@H]1C[C@@H](NC(=O)c2cc(C3CC3)on2)CCN1S(=O)(=O)N1CCC(N2CCCC2)CC1` [compound 847, 5-cyclopropyl-N-((2S,4S)-2-methyl-1-((4-(pyrrolidin-1-yl)piperidin-1-yl)sulfonyl)piperidin-4-yl)isoxazole-3-carboxamide]: the half-maximal inhibitory concentration (IC50) on SMYD3 [1] came to 75.8 nM; on SMYD3 [2], 5.53 nM.
On the same counts, the results for `O=C(N[C@H]1C[C@H]2CC[C@@H](C1)N2S(=O)(=O)N1CCC(NCc2ccc(F)cc2)CC1)c1cc(C2CC2)on1` [compound 848, 5-cyclopropyl-N-((1R,3r,5S)-8-((4-((4-fluorobenzyl)amino)piperidin-1-yl)sulfonyl)-8-azabicyclo[3.2.1]octan-3-yl)isoxazole-3-carboxamide] are 153 nM and 5.73 nM.
As to `O=C(N[C@H]1C[C@H]2CC[C@@H](C1)N2S(=O)(=O)N1CCC2(CCN2)CC1)c1cc(C2CC2)on1` [compound 849, N-((1R,3r,5S)-8-((1,7-diazaspiro[3.5]nonan-7-yl)sulfonyl)-8-azabicyclo[3.2.1]octan-3-yl)-5-cyclopropylisoxazole-3-carboxamide], the results for the IC50 at SMYD3 [1] and on SMYD3 [2] were 62 nM and 5.95 nM, respectively.
As to `O=C(N[C@H]1C[C@H]2CC[C@@H](C1)N2S(=O)(=O)N1CC2CCC(C1)N2CCCO)c1cc(C2CC2)on1` [compound 850, 5-cyclopropyl-N-((1R,3r,5S)-8-((8-(3-hydroxypropyl)-3,8-diazabicyclo[3.2.1]octan-3-yl)sulfonyl)-8-azabicyclo[3.2.1]octan-3-yl)isoxazole-3-carboxamide], the IC50 was 58.8 nM on SMYD3 [1] and 6.21 nM at SMYD3 [2].
On to `COCCN(C)C1CCN(S(=O)(=O)N2CC[C@H](NC(=O)c3cc(C4CC4)on3)C[C@@H]2C)CC1` [compound 851, 5-cyclopropyl-N-((2S,4S)-1-((4-((2-methoxyethyl)(methyl)amino)piperidin-1-yl)sulfonyl)-2-methylpiperidin-4-yl)isoxazole-3-carboxamide], for which the IC50 came out at 125 nM at SMYD3 [1] and 6.44 nM on SMYD3 [2].
On the same counts, the results for `CCN(C)C1CCN(S(=O)(=O)N2[C@@H]3CC[C@H]2C[C@@H](NC(=O)c2cc(C4CC4)on2)C3)CC1` [compound 852, 5-cyclopropyl-N-((1R,3r,5S)-8-((4-(ethyl(methyl)amino)piperidin-1-yl)sulfonyl)-8-azabicyclo[3.2.1]octan-3-yl)isoxazole-3-carboxamide] are 114 nM and 6.5 nM.
`CC(C)CNC1CCN(S(=O)(=O)N2[C@@H]3CC[C@H]2C[C@@H](NC(=O)c2cc(C4CC4)on2)C3)CC1` [compound 853, 5-cyclopropyl-N-((1R,3r,5S)-8-((4-(isobutylamino)piperidin-1-yl)sulfonyl)-8-azabicyclo[3.2.1]octan-3-yl)isoxazole-3-carboxamide]: the results for the IC50 at SMYD3 [1] and at SMYD3 [2] were 71 nM and 6.55 nM, respectively.
On the same counts, the results for `O=C(N[C@H]1C[C@H]2CC[C@@H](C1)N2S(=O)(=O)N1CC2CCC1CN2)c1cc(C2CC2)on1` [compound 855, N-((1R,3r,5S)-8-((2,5-diazabicyclo[2.2.2]octan-2-yl)sulfonyl)-8-azabicyclo[3.2.1]octan-3-yl)-5-cyclopropylisoxazole-3-carboxamide] are 68.7 nM and 7.06 nM.
In the same order, the values of `O=C(N[C@H]1C[C@H]2CC[C@@H](C1)N2S(=O)(=O)N1CCNCC1)c1cc(C2CC2)on1` [compound 856, 5-cyclopropyl-N-((1R,3r,5S)-8-(piperazin-1-ylsulfonyl)-8-azabicyclo[3.2.1]octan-3-yl)isoxazole-3-carboxamide] are 46.7 nM and 7.09 nM.
In the same order, the values of `CC1CC(CS(=O)(=O)N2[C@@H]3CC[C@H]2C[C@@H](NC(=O)c2cc(C4CC4)on2)C3)CC(C)N1` (stereo partly drawn) [compound 857, 5-cyclopropyl-N-((1R,3r,5S)-8-(((2,6-dimethylpiperidin-4-yl)methyl)sulfonyl)-8-azabicyclo[3.2.1]octan-3-yl)isoxazole-3-carboxamide] are 130 nM and 7.09 nM.
Turning to `C[C@H]1C[C@@H](NC(=O)c2cc(C3CC3)on2)CCN1S(=O)(=O)CC[C@H]1CCNC1` [compound 858, 5-cyclopropyl-N-((2S,4S)-2-methyl-1-((2-((R)-pyrrolidin-3-yl)ethyl)sulfonyl)piperidin-4-yl)isoxazole-3-carboxamide], the IC50 on SMYD3 [1] worked out at 172 nM; on SMYD3 [2], 7.2 nM.
Consider `O=C(N[C@H]1C[C@H]2CC[C@@H](C1)N2S(=O)(=O)[C@H]1CC[C@H](NCCN2CCOCC2)CC1)c1cc(C2CC2)on1` [compound 859, 5-cyclopropyl-N-((1R,3R,5S)-8-(((1r,4R)-4-((2-morpholinoethyl)amino)cyclohexyl)sulfonyl)-8-azabicyclo[3.2.1]octan-3-yl)isoxazole-3-carboxamide], for which the IC50 worked out at 209 nM at SMYD3 [1] and 7.43 nM at SMYD3 [2].
On the same counts, the results for `CC(C)CN(C)C1CCN(S(=O)(=O)N2[C@@H]3CC[C@H]2C[C@@H](NC(=O)c2cc(C4CC4)on2)C3)CC1` [compound 860, 5-cyclopropyl-N-((1R,3r,5S)-8-((4-(isobutyl(methyl)amino)piperidin-1-yl)sulfonyl)-8-azabicyclo[3.2.1]octan-3-yl)isoxazole-3-carboxamide] are 139 nM and 7.52 nM.
On the same counts, the results for `COCCNC1CCN(S(=O)(=O)N2CC[C@H](NC(=O)c3cc(C4CC4)on3)C[C@@H]2C)CC1` [compound 861, 5-cyclopropyl-N-((2S,4S)-1-((4-((2-methoxyethyl)amino)piperidin-1-yl)sulfonyl)-2-methylpiperidin-4-yl)isoxazole-3-carboxamide] are 102 nM and 7.65 nM.
